{"source": "patent US11147926B2", "about": "“Intrathecal baclofen pharmaceutical dosage forms and related delivery system” (PIRAMAL CRITICAL CARE, INC., priority 2008, dated 2021)", "origin": "cited, not measured here", "key": {"[1]": {"details": "injected into the intrathecal space of a patient, at effective CSF concentrations, versus oral"}}, "data": [{"smiles": "NCC(CC(=O)O)c1ccc(Cl)cc1", "note": "(stereo not shown) [Baclofen, 4-amino-3-(p-chlorophenyl)butyric acid]", "values": [{"measurement": "plasma concentrations, times less than with oral administration", "setting": "[1]", "result": 100, "unit": "times"}, {"measurement": "solubility in chloroform", "setting": "chloroform", "result": "insoluble"}, {"measurement": "solubility in methanol", "setting": "methanol", "result": "very slightly soluble"}, {"measurement": "solubility in water", "setting": "water", "result": "slightly soluble"}]}]}
